Assay results published in ChEMBL document CHEMBL1201862, “PubChem BioAssay data set” (2004).
Calls of active or inactive are those of the source.

Columns and labels:
[1] = target: T1, Fatty acid synthase (Homo sapiens, UniProt P49327); assay: FAS thioesterase domain inhibitors, dose response, biochemical, kinetic fluorescence intensity (AID 624326); format: functional;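 note: rate of fluorescence rise from hydrolysis of a fluorogenic O-methyl fluorescein ester substrate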
[2] = target: T1, Fatty acid synthase; assay: FAS thioesterase domain inhibitors, dose response, biochemical, endpoint fluorescence intensity, uHTS hits (AID 624327); format: functional;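 note: fluorescence from hydrolysis of an O-methyl fluorescein acyl ester substrate by the enzyme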
[3] = target: T2, Short transient receptor potential channel 4 (Mus musculus, UniProt Q9QUQ5); assay: mouse TRPC4 channel inhibitors, dose response, cell-based, HEK293 TRPC4/mu-opioid, Fluo-4 calcium (AID 434942); format: functional;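 note: potency of inhibitors blocking the TRPC4 calcium response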
T2 sequence (Q9QUQ5 whole entry): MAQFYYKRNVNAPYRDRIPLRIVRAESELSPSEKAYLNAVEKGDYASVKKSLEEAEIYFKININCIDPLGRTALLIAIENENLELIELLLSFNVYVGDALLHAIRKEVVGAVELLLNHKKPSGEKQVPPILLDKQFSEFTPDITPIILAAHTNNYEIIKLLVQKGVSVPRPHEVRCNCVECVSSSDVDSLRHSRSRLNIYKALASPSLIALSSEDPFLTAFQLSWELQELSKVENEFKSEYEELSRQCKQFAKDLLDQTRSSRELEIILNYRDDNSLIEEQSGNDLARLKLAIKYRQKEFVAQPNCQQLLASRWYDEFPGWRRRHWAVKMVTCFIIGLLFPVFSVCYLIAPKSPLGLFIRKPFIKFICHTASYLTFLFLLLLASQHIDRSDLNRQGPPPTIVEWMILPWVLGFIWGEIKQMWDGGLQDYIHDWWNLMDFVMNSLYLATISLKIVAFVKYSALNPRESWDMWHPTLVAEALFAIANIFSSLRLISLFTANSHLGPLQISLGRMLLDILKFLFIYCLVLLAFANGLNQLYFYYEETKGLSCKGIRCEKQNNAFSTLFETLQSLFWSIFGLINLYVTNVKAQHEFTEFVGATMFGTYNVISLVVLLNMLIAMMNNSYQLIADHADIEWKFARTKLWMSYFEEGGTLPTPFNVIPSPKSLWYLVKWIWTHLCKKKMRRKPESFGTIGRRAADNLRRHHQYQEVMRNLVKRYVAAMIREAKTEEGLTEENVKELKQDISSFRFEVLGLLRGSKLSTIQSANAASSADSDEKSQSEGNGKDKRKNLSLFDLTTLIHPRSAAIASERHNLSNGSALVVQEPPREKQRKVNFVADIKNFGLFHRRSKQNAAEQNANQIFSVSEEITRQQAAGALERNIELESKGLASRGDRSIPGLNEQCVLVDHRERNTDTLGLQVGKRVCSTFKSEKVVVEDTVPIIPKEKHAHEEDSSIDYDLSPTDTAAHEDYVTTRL

[4] = test system: HEK293; assay: NOD2 signaling inhibitors in MDP-stimulated cells, cell-based, uHTS, luminescence (AID 2001); format: functional; conditions: Homo sapiens
[5] = test system: HEK293; assay: cells; format: functional, cell-based; conditions: Homo sapiens
[6] = target: Nucleotide-binding oligomerization domain-containing protein 2 (Homo sapiens, UniProt Q9HC29); assay: NOD2 signaling inhibitors, cell-based, luminescence, uHTS, HEK293 (AID 1566); format: functional
Nucleotide-binding oligomerization domain-containing protein 2, sequence (Q9HC29 whole entry, the tested form may be a part): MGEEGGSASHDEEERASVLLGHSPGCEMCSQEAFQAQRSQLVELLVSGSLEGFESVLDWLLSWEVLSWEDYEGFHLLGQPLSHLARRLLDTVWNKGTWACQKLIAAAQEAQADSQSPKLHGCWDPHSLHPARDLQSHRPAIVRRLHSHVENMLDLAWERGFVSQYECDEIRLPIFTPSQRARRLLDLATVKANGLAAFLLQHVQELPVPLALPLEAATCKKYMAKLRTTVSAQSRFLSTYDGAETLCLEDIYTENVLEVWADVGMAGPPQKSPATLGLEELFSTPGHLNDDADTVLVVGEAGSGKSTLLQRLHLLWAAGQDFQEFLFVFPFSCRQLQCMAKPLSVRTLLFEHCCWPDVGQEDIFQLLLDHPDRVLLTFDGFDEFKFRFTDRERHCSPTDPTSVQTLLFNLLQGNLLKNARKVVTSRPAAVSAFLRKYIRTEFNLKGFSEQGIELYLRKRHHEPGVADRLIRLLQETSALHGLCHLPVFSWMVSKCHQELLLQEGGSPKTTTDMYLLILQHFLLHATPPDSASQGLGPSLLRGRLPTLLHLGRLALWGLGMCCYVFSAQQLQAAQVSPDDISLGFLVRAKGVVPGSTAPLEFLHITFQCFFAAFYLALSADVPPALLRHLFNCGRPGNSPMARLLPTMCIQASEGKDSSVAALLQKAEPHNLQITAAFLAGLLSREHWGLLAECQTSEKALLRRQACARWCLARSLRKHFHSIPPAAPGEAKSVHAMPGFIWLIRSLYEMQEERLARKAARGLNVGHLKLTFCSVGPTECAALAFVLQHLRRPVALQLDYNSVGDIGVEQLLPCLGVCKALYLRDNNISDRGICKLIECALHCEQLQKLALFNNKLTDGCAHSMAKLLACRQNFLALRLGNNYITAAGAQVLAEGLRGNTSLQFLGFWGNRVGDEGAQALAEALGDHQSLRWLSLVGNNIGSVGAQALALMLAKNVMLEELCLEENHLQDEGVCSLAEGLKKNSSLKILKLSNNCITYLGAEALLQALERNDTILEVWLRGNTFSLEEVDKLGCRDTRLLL

[7] = test system: HEK293; assay: cells; format: functional, cell-based; conditions: Homo sapiens; remark: listed apart in the source
[8] = test system: HEK293; assay: cells; format: functional, cell-based; conditions: Homo sapiens; remark: listed apart in the source
[9] = test system: HEK293; assay: NOD1 signaling inhibitors, primary screen, cell-based, luminescence, uHTS (AID 1578); format: functional; conditions: Homo sapiens
[10] = C. albicans growth with fluconazole, confirmation, fluorescence, retest (AID 2467); format: functional, cell-based
[11] = NIH-3T3 fibroblast cytotoxicity, dose response, cytotoxicity control, cell-based, fluorescence, Alamar Blue, secondary assay (AID 2327); format: functional;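 note: NIH-3T3 mouse fibroblasts cultured with fluconazole at 8 µg/mL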
[12] = target: T3, Voltage-gated N-type calcium channel alpha-1B subunit/Amyloid beta A4 precursor protein-binding family A member 1 (Homo sapiens, UniProt Q00975+Q02410); assay: disruptors of Mint-PDZ/N-type channel peptide interaction – biochemical, HTRF, set 2, SAR follow-up (AID 434980); format: functional
T3 sequence (Q00975 whole entry): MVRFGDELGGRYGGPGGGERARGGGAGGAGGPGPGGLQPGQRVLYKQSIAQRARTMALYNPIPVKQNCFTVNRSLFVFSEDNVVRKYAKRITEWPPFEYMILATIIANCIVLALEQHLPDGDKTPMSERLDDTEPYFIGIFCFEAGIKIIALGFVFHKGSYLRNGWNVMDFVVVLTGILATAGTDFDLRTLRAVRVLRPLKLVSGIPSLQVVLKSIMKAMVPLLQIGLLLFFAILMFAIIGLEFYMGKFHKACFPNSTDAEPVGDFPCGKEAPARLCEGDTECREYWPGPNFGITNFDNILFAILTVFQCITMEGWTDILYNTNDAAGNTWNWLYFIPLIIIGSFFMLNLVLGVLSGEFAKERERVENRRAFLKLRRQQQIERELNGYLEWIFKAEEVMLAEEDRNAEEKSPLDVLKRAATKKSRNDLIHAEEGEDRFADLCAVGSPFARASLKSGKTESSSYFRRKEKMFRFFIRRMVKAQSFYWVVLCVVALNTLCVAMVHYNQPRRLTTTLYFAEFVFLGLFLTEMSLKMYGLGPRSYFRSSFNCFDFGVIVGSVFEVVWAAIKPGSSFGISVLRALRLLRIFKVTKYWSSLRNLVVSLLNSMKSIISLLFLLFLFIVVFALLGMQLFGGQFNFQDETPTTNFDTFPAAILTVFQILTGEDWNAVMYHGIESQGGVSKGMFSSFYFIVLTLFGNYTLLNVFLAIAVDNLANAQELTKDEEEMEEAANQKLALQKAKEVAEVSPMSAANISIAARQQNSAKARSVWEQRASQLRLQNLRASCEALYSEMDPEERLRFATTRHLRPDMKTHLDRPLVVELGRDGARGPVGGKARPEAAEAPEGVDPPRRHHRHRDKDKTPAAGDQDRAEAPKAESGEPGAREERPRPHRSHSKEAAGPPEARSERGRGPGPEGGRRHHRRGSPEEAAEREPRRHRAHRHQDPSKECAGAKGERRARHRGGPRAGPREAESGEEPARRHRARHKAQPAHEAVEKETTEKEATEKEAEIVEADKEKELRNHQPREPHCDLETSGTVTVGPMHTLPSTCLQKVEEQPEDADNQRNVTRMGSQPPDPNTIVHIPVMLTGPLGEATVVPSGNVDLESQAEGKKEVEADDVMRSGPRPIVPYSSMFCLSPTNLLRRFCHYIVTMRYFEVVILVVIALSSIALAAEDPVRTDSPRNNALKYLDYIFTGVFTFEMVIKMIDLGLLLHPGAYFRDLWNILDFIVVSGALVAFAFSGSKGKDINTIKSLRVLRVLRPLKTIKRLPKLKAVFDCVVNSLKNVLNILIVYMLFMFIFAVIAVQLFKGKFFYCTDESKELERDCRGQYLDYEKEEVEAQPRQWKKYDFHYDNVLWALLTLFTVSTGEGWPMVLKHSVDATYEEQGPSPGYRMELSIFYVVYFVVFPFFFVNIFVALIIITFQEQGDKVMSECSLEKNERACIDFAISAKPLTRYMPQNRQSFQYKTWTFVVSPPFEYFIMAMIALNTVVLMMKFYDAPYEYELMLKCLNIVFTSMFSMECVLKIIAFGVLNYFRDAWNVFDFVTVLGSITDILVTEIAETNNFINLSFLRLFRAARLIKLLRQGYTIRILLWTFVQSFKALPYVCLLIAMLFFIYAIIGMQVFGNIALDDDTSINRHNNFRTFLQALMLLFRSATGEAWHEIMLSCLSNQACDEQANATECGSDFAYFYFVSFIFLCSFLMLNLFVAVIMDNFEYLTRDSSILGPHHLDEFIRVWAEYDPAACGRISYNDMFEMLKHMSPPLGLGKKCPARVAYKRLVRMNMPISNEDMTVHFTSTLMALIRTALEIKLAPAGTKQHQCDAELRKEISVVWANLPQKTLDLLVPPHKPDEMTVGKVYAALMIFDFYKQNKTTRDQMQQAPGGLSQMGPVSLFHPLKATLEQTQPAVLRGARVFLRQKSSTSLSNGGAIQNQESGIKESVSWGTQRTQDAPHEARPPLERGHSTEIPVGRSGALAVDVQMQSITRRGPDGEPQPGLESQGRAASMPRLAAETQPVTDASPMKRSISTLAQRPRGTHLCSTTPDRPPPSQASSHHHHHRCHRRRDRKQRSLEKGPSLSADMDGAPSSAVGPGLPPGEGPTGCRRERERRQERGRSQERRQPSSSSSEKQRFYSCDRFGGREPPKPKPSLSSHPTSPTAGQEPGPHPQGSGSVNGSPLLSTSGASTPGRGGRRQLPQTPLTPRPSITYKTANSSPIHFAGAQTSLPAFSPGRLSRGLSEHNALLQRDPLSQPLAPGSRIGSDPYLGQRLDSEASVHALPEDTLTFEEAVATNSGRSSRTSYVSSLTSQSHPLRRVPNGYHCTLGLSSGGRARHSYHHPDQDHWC
T3 sequence (Q02410 whole entry): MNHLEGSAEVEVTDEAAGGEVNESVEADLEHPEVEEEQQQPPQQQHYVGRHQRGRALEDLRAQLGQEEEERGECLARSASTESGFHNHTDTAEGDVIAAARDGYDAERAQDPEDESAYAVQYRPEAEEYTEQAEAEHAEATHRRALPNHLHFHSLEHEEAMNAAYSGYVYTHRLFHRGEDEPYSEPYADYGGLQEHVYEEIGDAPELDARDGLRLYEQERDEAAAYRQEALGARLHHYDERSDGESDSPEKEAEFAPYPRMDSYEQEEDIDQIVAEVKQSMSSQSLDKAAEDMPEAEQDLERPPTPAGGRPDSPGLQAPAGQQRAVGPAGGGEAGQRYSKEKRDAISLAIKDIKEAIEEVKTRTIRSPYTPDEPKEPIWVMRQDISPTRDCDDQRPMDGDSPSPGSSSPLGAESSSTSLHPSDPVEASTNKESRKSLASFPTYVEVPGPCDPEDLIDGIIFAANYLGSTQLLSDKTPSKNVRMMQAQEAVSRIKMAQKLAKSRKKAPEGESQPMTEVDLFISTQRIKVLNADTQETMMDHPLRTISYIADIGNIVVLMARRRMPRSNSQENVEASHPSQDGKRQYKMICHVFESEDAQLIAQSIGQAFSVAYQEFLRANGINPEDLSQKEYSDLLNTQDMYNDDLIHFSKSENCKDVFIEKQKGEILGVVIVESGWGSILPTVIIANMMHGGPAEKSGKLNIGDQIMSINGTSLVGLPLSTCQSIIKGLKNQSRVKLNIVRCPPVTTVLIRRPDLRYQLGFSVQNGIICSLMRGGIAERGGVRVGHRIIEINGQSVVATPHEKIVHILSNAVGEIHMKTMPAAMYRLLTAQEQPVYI

[13] = target: Induced myeloid leukemia cell differentiation protein Mcl-1 (Homo sapiens, UniProt Q07820); format: functional
[14] = target: T4, Protein RecA (Mycobacterium tuberculosis, UniProt P9WHJ3); assay: Fluorescence Cell-Free Homogeneous Dose Retest to Identify Inhibitors of RecA-Intein Splicing Activity. [Related pubchem assays (depositor defined):AID2097, AID2223, AID489010, AID492950]; format: functional
T4 sequence (P9WHJ3 whole entry): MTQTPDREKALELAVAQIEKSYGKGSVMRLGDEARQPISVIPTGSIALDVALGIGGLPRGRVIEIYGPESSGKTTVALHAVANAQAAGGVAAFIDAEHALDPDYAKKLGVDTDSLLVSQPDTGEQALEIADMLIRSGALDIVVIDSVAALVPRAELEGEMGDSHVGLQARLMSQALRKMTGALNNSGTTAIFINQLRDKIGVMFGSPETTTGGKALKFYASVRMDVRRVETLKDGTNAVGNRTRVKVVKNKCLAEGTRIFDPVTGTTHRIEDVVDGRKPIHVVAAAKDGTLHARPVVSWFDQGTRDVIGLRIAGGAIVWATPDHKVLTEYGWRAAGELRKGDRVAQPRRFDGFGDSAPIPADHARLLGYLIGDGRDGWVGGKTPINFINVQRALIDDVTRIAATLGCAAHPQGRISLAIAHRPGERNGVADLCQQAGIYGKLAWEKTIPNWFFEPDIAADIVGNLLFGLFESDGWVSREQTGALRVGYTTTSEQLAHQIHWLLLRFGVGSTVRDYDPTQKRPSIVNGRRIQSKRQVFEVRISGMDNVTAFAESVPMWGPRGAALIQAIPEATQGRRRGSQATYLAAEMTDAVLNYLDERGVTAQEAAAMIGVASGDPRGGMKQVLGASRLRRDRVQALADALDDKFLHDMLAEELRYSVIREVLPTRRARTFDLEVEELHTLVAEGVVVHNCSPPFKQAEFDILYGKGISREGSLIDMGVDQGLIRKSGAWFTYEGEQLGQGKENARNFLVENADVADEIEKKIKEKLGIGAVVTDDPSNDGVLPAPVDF

[15] = target: T3, Voltage-gated N-type calcium channel alpha-1B subunit/Amyloid beta A4 precursor protein-binding family A member 1; assay: disruptors of Mint-PDZ/N-type channel peptide interaction – biochemical, HTRF, SAR follow-up (AID 2489); format: functional
[16] = target: T5, Replicative DNA helicase DnaB (Mycobacterium tuberculosis, UniProt P9WMR3); assay: DnaB intein splicing inhibitors, dose response, biochemical, cell-free fluorescence (AID 449749); format: functional
T5 sequence (P9WMR3 whole entry): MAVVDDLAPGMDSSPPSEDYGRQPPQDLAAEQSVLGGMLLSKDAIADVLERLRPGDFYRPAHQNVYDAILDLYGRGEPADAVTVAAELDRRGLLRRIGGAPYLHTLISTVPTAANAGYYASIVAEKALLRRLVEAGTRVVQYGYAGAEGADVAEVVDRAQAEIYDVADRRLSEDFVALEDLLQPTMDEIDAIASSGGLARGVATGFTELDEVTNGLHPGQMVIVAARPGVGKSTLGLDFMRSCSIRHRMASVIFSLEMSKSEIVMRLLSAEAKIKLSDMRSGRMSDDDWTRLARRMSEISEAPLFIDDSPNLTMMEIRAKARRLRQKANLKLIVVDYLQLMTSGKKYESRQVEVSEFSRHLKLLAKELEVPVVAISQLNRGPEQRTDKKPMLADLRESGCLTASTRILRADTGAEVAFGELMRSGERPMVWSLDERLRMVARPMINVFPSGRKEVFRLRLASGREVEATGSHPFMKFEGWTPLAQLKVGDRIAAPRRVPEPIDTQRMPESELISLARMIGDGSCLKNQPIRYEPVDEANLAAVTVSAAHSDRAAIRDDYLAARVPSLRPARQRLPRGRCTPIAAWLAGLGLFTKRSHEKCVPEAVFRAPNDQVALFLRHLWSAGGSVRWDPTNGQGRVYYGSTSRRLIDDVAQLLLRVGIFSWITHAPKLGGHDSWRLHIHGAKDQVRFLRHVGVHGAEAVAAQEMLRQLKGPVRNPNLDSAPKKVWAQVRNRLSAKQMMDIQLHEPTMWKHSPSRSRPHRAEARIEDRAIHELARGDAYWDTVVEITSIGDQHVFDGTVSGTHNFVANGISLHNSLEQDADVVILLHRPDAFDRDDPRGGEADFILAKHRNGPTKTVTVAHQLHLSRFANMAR

[17] = target: T3, Voltage-gated N-type calcium channel alpha-1B subunit/Amyloid beta A4 precursor protein-binding family A member 1; format: protein assay
[18] = target: T3, Voltage-gated N-type calcium channel alpha-1B subunit/Amyloid beta A4 precursor protein-binding family A member 1; format: protein assay; remark: listed apart in the source
[19] = target: DNA dC->dU-editing enzyme APOBEC-3G (Homo sapiens, UniProt Q9HC16); assay: Dose Response confirmation of small molecule APOBEC3G DNA Deaminase Inhibitors via a fluorescence-based single-stranded DNA deaminase assay. [Related pubchem assays (depositor defined):AID493012, AID493028]; format: functional
DNA dC->dU-editing enzyme APOBEC-3G, sequence (Q9HC16 whole entry, the tested form may be a part): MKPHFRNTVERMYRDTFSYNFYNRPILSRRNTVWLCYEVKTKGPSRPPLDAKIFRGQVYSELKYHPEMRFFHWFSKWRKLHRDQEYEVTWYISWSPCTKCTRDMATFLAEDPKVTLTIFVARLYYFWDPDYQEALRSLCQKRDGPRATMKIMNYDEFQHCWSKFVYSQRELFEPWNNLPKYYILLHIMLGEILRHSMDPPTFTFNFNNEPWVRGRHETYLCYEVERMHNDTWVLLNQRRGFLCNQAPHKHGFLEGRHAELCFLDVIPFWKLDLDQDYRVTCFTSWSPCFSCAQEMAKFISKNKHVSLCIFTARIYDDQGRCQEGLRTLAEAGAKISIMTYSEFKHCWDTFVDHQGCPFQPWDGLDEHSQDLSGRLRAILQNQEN

[20] = inhibitors of HIV Env-driven cell fusion, dose response, cherry-pick (AID 652057); format: functional, cell-based
[21] = inhibitors of clade B AD8 Env fusion, dose response, cell-based, cherry-pick (AID 652062); format: functional;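 note: luciferase signal from cell-cell fusion driven by HIV-1 clade B AD8 Env; potency is for inhibitors of fusion seen as a drop in luminescence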
[22] = target: Neurotensin receptor type 1 (Homo sapiens, UniProt P30989); format: functional;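 note: Image-based confirmatory dose-response assay measuring agonist activity at NTR1; NTR1-expressing U2OS osteosarcoma cells imaged for beta-arrestin GFP spot formation; agonist potency where compounds increase beta-arrestin recruitment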
[23] = CEM21 lymphoblast cell cytotoxicity, dose response, cytotoxicity control for viral fusion inhibitor project, CellTiter-Glo luminescence, cherry-picked (AID 652042); format: functional, cell-based;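 note: potency for signal decrease meaning cytotoxicity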
[24] = target: Eukaryotic translation initiation factor 4E (Mus musculus, UniProt P63073); assay: eIF4E–eIF4G protein interaction inhibitors, dose response, biochemical, TR-FRET (AID 855); format: functional;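 note: potency for disrupting eIF4E binding to eIF4GI seen as loss of FRET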
Eukaryotic translation initiation factor 4E, sequence (P63073 whole entry): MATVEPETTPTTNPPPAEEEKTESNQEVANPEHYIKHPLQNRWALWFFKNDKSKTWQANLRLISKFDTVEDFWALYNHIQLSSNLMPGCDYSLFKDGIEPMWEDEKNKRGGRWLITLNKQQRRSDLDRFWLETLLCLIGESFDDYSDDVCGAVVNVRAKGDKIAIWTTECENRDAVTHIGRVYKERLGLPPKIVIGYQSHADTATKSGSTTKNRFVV

[25] = target: Peroxisome proliferator-activated receptor gamma/Nuclear receptor coactivator 3 (Homo sapiens, UniProt P37231); assay: TR-FRET dose response biochemical High Throughput Screening assay for agonists of the steroid receptor coactivator 3 (SRC-3) recruitment by the peroxisome proliferator-activated receptor gamma (PPAR gamma): non-selective agonists. [Related pubchem assays: 1301 (Confirmation screen.), 1048 (Primary screen.)]; format: functional
[26] = target: Peroxisome proliferator-activated receptor gamma/Nuclear receptor coactivator 1 (Homo sapiens, UniProt P37231); assay: TR-FRET dose response biochemical High Throughput Screening assay for agonists of the steroid receptor coactivator 1 (SRC-1) recruitment by the peroxisome proliferator-activated receptor gamma (PPAR gamma): non-selective agonists. [Related pubchem assays (depositor defined):AID1300, AID1808, AID504735, AID631]; format: protein assay
[27] = target: Peroxisome proliferator-activated receptor gamma/Nuclear receptor coactivator 2 (Homo sapiens, UniProt P37231); assay: TR-FRET dose response biochemical High Throughput Screening assay for agonists of the steroid receptor coactivator 2 (SRC-2) recruitment by the peroxisome proliferator-activated receptor gamma (PPAR gamma): non-selective agonists. [Related pubchem assays: 1297, 1032 ]; format: functional
[28] = target: SUMO E1/E2 (Homo sapiens, UniProt P63279+Q9UBE0+Q9UBT2); assay: SAR analysis of SUMOylation using HTRF in an in-Vitro dose response assay. [Related pubchem assays (depositor defined):AID2006, AID2011, AID2018, AID2069, AID2658]; format: functional

| SMILES | EC50 [3] | IC50 [4] | IC50 [5] | EC50 [6] | IC50 [7] | IC50 [8] | EC50 [9] | also measured |
| --- | --- | --- | --- | --- | --- | --- | --- | --- |
| O=c1c2ccccc2nc(SCc2ccc([N+](=O)[O-])cc2)n1CCCO | 0.376 µM (active) | – | – | – | – | – | – | IC50 [1]: 5.59 µM (active); IC50 [2]: 10.2 µM (active) |
| COc1ccc(C(Nc2ccccn2)c2c(NC(=O)c3ccco3)sc(C)c2C)cc1OC (configuration not stated) | 1.19 µM (active) | – | – | – | – | – | – | – |
| CC1CCc2nc(NC(=O)CSc3nc4ccccc4o3)sc2C1 (configuration not stated) | – | 5.28 µM (active) | > 20 µM (inactive) | > 20 µM (inactive) | 3.36 µM (active) | 15.4 µM (active) | 5.78 µM (active) | – |
| CCCc1ccc(/C=C2\C(=O)c3ccccc3C(O)=C2C(=O)OCC)cc1 | – | – | – | – | – | – | – | EC50 [10]: > 38 µM (not active); EC50 [11]: 56.4 µM (inconclusive); IC50 [12]: 5.7 µM (active); IC50 [13]: 2.32 µM (not active); EC50 [14]: 8.95 µM (active); IC50 [15]: 7.19 µM (active); AC50 [16]: 5.54 µM (active); IC50 [17]: 9.62 µM (active); IC50 [18]: 5.12 µM (active) |
| O=S(=O)(Cc1ccccc1)N=Nc1c(O)[nH]c2ccc(Br)cc12 | – | – | – | – | – | – | – | IC50 [19]: 44.3 µM (active) |
| CCc1nc2ccccc2c(C(=O)OCC(=O)Nc2cccc(S(=O)(=O)N3CCOCC3)c2)c1C | – | 5.81 µM (inactive) | > 20 µM (inactive) | 12.8 µM (active) | 4.01 µM (active) | 9.75 µM (active) | 5.64 µM (active) | AC50 [20]: 44.6 µM (active); AC50 [21]: 13.9 µM (active); EC50 [22]: 10.2 µM (active); AC50 [23]: 31.5 µM (active) |
| O=C(Nc1cccnc1)c1cc2c(ccc3ccccc32)o1 | – | – | – | – | – | – | – | IC50 [24]: > 64 µM (inactive) |
| O=C(CSc1ncnc2c1oc1ccccc12)N1CCCc2ccccc21 | – | 5.25 µM (inactive) | > 20 µM (inactive) | 11.9 µM (active) | 4.86 µM (active) | 9.45 µM (active) | 5.08 µM (active) | EC50 [25]: > 79.4 µM (not active); EC50 [26]: > 79.4 µM (inactive); EC50 [27]: 85.1 µM (not active) |
| Nc1cc(=O)nc(SCC(=O)N2CCN(c3ccccc3)CC2)n1-c1ccc(F)cc1 | 6.68 µM (active) | – | – | – | – | – | – | – |
| Nc1ccc2c(c1)C1C=CCC1C(c1ccccc1)N2 (configuration not stated) | – | – | – | – | – | – | – | IC50 [28]: > 100 µM (inactive) |
